In patent US20130273196A1, “Pet Food Compositions for Inducing a Satiety Response” (HILL'S PET NUTRITION, INC, priority 2010, published 2013):

What was measured:
NPY5R = assay: Affymetrix canine GeneChip gene expression analysis in canine cell lines, NPY5R; format: cell-based
Protocol: Gene expression was analyzed using Affymetrix Canine 1 and Canine 2 GeneChip Arrays available commercially from Affymetrix, Inc., Santa Clara, Calif. 95051. Total RNA is reverse transcribed into cDNA. The cDNA is used to generate cRNA which is fragmented and used as probes for GeneChip hybridization. The gene chip is washed and the hybridization signal is measured with an Affymetrix laser scanner. The hybridization data is then validated and normalized for further analysis. Materials: Affymetrix provided most of the reagents and kit. Other reagents listed in the Affymetrix Manual but not supplied in the kit were obtained separately. Refer to GeneChip Expression Analysis Technical Manual (701021 Rev. 4) for the details. Equipment: Eppendorf Microcentrifuge, 1.5 mL DNase and RNase free/sterile microcentrifuge tubes, 50 mL DNase and RNase free/sterile disposable polypropylene tubes, P1000, […] and P2 Rainin Pipetman pipettes, Filter pipette tips for P1000, […] and P2 pipettes, DNase and RNase free/sterile, and Peltier Thermal Cycler PTC-200. Procedure: All procedures followed exactly as described in GeneChip Expression Analysis Technical Manual (Affymetrix Copyright 1999-2003). 5 micrograms of total RNA were used for the first strand cDNA synthesis. Used either Peltier Thermal Cycler PTC-200 or heat block for temperature control on reactions and probe denaturing. The quality control was performed using RNA NanoDrop chips with BioAnalyer 2100. Used 100 Format (Midi Array) for the canine genechip. […] The solvent at the higher of the two concentrations was used as a control. […] Gene expression was measured for the treatment cell lines and controls. The gene expression data was determined to be either “up” or “down”-regulated for any given treatment. The decision on whether a gene is “up” or “down” is based on the fold change, which is calculated as treatment intensity/control intensity for each individual probe.

NPY1R = assay: Affymetrix canine GeneChip gene expression analysis in canine cell lines, NPY1R; format: cell-based; details: in two cell lines tested, amount tested 0.005 mg/mL, 0.025 mg/mL
Protocol: Gene expression was analyzed using Affymetrix Canine 1 and Canine 2 GeneChip Arrays available commercially from Affymetrix, Inc., Santa Clara, Calif. 95051. Total RNA is reverse transcribed into cDNA. The cDNA is used to generate cRNA which is fragmented and used as probes for GeneChip hybridization. The gene chip is washed and the hybridization signal is measured with an Affymetrix laser scanner. The hybridization data is then validated and normalized for further analysis.
Materials: Affymetrix provided most of the reagents and kit. Other reagents listed in the Affymetrix Manual but not supplied in the kit were obtained separately. Refer to GeneChip Expression Analysis Technical Manual (701021 Rev. 4) for the details. […]
Affymetrix canine gene chips Canine-1 and Canine-2 are used to determine the effect of various test substances or ingredients on gene expression in four canine cell lines and appropriate controls. […] Gene expression was measured for the treatment cell lines and controls. The gene expression data was determined to be either “up” or “down”-regulated for any given treatment. The decision on whether a gene is “up” or “down” is based on the fold change, which is calculated as treatment intensity/control intensity for each individual probe.

Question: What does the source list for `CC/C=C\C/C=C\C/C=C\C/C=C\C/C=C\CCCC(=O)O` [EPA]?
Answer: Fold change (NPY5R; in two cell lines tested, amount tested 0.005 mg/mL, 0.025 mg/mL): −1.82 (in two cell lines; Fold change (NPY1R): −1.43 (in two cell lines

Question: `O=C(O[C@@H]1Cc2c(O)cc(O)cc2O[C@@H]1c1cc(O)c(O)c(O)c1)c1cc(O)c(O)c(O)c1` [Epigallocatechin Gallate, epigallocatechin gallate] was tested. Which Fold change (NPY5R; in all cell lines tested, amount tested 20 ng/mL, 80 ng/mL, fold change = treatment intensity/control intensity) did it give?
Answer: The Fold change was −1.33 (in all cell lines.

Question: For `O=c1cc(-c2ccc(O)c(O)c2)oc2cc(O)cc(O)c12` [Luteolin, luteolin], which Fold change (NPY5R; in two cell lines tested, amount tested 1 uM, 10 uM) is on record?
Answer: The Fold change was 1.56 (in two cell lines tested).
